# From the supplement of paper PMC10307832
# Experiments:
# Test in all cases: relative viability (nuclei count vs DMSO), 5 days (fraction); higher = more cells survive
# AZ505 = compound: C1CCC(CC1)N(CCNCCC2=C3C(=C(C=C2)O)NC(=O)CO3)C(=O)CCNCCC4=CC(=C(C=C4)Cl)Cl [AZ505]
# In short: (§1)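 For viability, nuclei in each treated well were divided by nuclei in vehicle wells and the median across plates was taken. Lung cancer cell lines in 1536-well plates were pinned with five library-drug doses (not always all listed) spaced by √10, cultured 5 days without medium change, and imaged at 4× after Hoechst staining, with plates passing only at control CV below 25% and at least one doubling.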
# Dactolisib = compound: Cn1c(=O)n(-c2ccc(C(C)(C)C#N)cc2)c2c3cc(-c4cnc5ccccc5c4)ccc3ncc21 [Dactolisib]
# In short: as §1
# AZ505 + OSI-027 = compound: C1CCC(CC1)N(CCNCCC2=C3C(=C(C=C2)O)NC(=O)CO3)C(=O)CCNCCC4=CC(=C(C=C4)Cl)Cl [AZ505] + COc1cccc2cc(-c3nc([C@H]4CC[C@H](C(=O)O)CC4)n4ncnc(N)c34)[nH]c12 [OSI-027] (partner 0.5 µM)
# In short: (§2)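 Lung cancer cell lines, seeded in 1536-well plates, were treated the following day by pin tool with a single drug or with five library-drug doses (not always all listed) in √10 steps on top of a fixed anchor-drug dose. Cells were fixed and nuclei stained in one step after 5 days, and nuclei were counted. Relative viability is the nuclei count for treated wells divided by that for vehicle wells, reported as medians of duplicate plates.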
# Dactolisib + Pemetrexed = compound: Cn1c(=O)n(-c2ccc(C(C)(C)C#N)cc2)c2c3cc(-c4cnc5ccccc5c4)ccc3ncc21 [Dactolisib] + Nc1nc2[nH]cc(CCc3ccc(C(=O)N[C@@H](CCC(=O)O)C(=O)O)cc3)c2c(=O)[nH]1 [Pemetrexed] (partner 0.2 µM)
# In short: as §2
Cell Line,relative viability (AZ505; 0.08 µM),relative viability (AZ505; 0.253 µM),relative viability (AZ505; 0.8 µM),relative viability (AZ505; 2.53 µM),relative viability (AZ505; 8 µM),relative viability (Dactolisib; 0.002 µM),relative viability (Dactolisib; 0.006325 µM),relative viability (Dactolisib; 0.02 µM),relative viability (Dactolisib; 0.06325 µM),relative viability (Dactolisib; 0.2 µM),relative viability (AZ505 + OSI-027; first compound 0.08 µM),relative viability (AZ505 + OSI-027; first compound 0.253 µM),relative viability (AZ505 + OSI-027; first compound 0.8 µM),relative viability (AZ505 + OSI-027; first compound 2.53 µM),relative viability (AZ505 + OSI-027; first compound 8 µM),relative viability (Dactolisib + Pemetrexed; first compound 0.002 µM),relative viability (Dactolisib + Pemetrexed; first compound 0.006325 µM),relative viability (Dactolisib + Pemetrexed; first compound 0.02 µM),relative viability (Dactolisib + Pemetrexed; first compound 0.06325 µM),relative viability (Dactolisib + Pemetrexed; first compound 0.2 µM)
NCI-H322M,0.906,0.824,0.954,0.826,1.02,1.04,0.931,0.734,0.702,0.579,0.535,0.332,0.601,0.572,0.553,0.664,0.641,0.643,0.523,0.474
NCI-H358,0.785,0.829,0.812,0.755,0.925,0.914,0.895,0.834,0.413,0.272,0.715,0.769,0.652,0.556,0.767,0.164,0.164,0.159,0.134,0.14
NCI-H441,0.865,1.09,1.07,0.997,1.24,1.28,1.02,0.925,0.48,0.298,0.66,0.595,0.614,0.579,0.703,0.24,0.266,0.24,0.221,0.25
NCI-H460,0.991,0.99,0.966,1,0.976,1.04,0.989,0.984,0.541,0.488,0.636,0.71,0.57,0.57,0.845,0.0654,0.0618,0.0641,0.0892,0.0591
NCI-H520,0.92,1.07,0.86,1.08,1.04,1.01,0.777,0.764,0.243,0.2,0.26,0.285,0.288,0.306,0.322,0.537,0.506,0.364,0.213,0.115
NCI-H522,0.922,0.961,0.981,1.05,1,0.971,0.932,0.967,0.895,0.568,0.713,0.583,0.691,0.812,0.809,1.08,0.774,1.11,0.927,0.851
NCI-H596,0.888,0.784,0.972,0.955,0.957,1.09,0.91,0.886,0.558,0.409,0.591,0.517,0.937,0.685,0.847,0.457,0.428,0.513,0.41,0.401
NCI-H647,0.943,1.01,0.996,0.895,1.02,1.05,0.824,0.691,0.254,0.208,0.615,0.698,0.488,0.619,0.693,0.144,0.172,0.194,0.154,0.101
NCI-H650,1.01,0.887,0.948,1.1,1.01,1.07,0.937,0.892,0.747,0.412,0.503,0.552,0.529,0.671,0.54,1,0.815,0.897,0.723,0.47
NCI-H661,0.951,1.01,0.963,0.963,1,1.08,1.03,0.953,0.482,0.432,0.681,0.8,0.666,0.695,0.715,0.823,0.932,0.854,0.498,0.515
NCI-H838,0.915,0.976,0.948,0.942,0.998,0.978,0.775,0.659,0.347,0.296,0.402,0.438,0.402,0.34,0.398,0.25,0.227,0.264,0.203,0.165
NCI-H1355,0.928,0.854,0.97,0.936,1.03,1.05,0.925,0.915,0.479,0.369,0.395,0.319,0.384,0.362,0.429,1.08,1.03,1.02,0.861,0.65
NCI-H1395,0.901,0.815,0.879,0.903,1.03,0.781,0.852,0.807,0.67,0.577,0.685,0.543,0.563,0.622,0.604,0.537,0.883,0.705,0.722,0.521
NCI-H1437,0.977,1,0.983,1.01,0.991,1.01,0.991,1.03,0.914,0.741,0.864,0.963,0.911,0.823,0.872,0.309,0.347,0.312,0.27,0.227
NCI-H1563,0.998,1.04,0.968,0.93,0.939,1,0.928,0.885,0.605,0.562,0.801,0.811,0.789,0.702,0.735,0.797,0.751,0.755,0.628,0.512
NCI-H1648,0.734,1.01,0.883,1.01,1.15,0.842,0.869,1.01,0.451,0.319,0.282,0.272,0.295,0.305,0.267,0.779,0.739,0.896,0.837,0.52

Cell Line,relative viability (AZ505; 0.08 µM),relative viability (AZ505; 0.253 µM),relative viability (AZ505; 0.8 µM),relative viability (AZ505; 2.53 µM),relative viability (AZ505; 8 µM),relative viability (Dactolisib; 0.002 µM),relative viability (Dactolisib; 0.006325 µM),relative viability (Dactolisib; 0.02 µM),relative viability (Dactolisib; 0.06325 µM),relative viability (Dactolisib; 0.2 µM),relative viability (AZ505 + OSI-027; first compound 0.08 µM),relative viability (AZ505 + OSI-027; first compound 0.253 µM),relative viability (AZ505 + OSI-027; first compound 0.8 µM),relative viability (AZ505 + OSI-027; first compound 2.53 µM),relative viability (AZ505 + OSI-027; first compound 8 µM),relative viability (Dactolisib + Pemetrexed; first compound 0.002 µM),relative viability (Dactolisib + Pemetrexed; first compound 0.006325 µM),relative viability (Dactolisib + Pemetrexed; first compound 0.02 µM),relative viability (Dactolisib + Pemetrexed; first compound 0.06325 µM),relative viability (Dactolisib + Pemetrexed; first compound 0.2 µM)
NCI-H1650,0.828,0.973,0.882,0.926,1.04,0.943,0.92,0.867,0.468,0.41,0.7,0.677,0.672,0.554,0.806,0.342,0.418,0.385,0.383,0.299
NCI-H1651,0.927,0.984,0.977,0.938,1.04,1.01,1,0.872,0.555,0.434,0.678,0.75,0.725,0.763,0.717,0.53,0.654,0.533,0.329,0.299
NCI-H1666,0.899,0.978,0.974,0.973,0.961,1.09,0.926,0.957,0.746,0.639,0.779,0.817,0.725,0.93,0.912,0.849,0.892,0.858,0.736,0.802
NCI-H1734,0.905,0.914,0.952,0.971,0.958,1.04,0.887,0.864,0.384,0.313,0.515,0.539,0.573,0.559,0.576,0.335,0.436,0.415,0.36,0.317
NCI-H1755,0.93,1.05,0.962,0.98,0.958,1.04,0.976,0.963,0.887,0.742,0.763,0.73,0.643,0.742,0.691,0.414,0.389,0.455,0.393,0.412
NCI-H1792,0.757,–,0.803,0.947,0.945,1.04,0.635,0.551,0.317,0.175,0.712,–,0.687,0.718,0.739,0.625,0.473,0.313,0.109,0.0622
NCI-H1793,0.805,0.883,0.83,0.768,0.976,0.807,0.569,0.474,0.242,0.241,0.245,0.228,0.344,–,0.37,0.751,0.409,0.266,0.214,0.168
NCI-H1915,0.954,1.06,0.945,0.942,0.949,1.02,1.03,1.02,0.657,0.579,0.549,0.563,0.544,0.416,0.587,0.355,0.508,0.455,0.425,0.42
NCI-H1944,0.949,0.989,1.06,0.861,1.02,1.12,0.973,0.917,0.387,0.402,0.396,0.389,0.497,0.385,0.425,0.461,0.564,0.585,0.286,0.244
NCI-H1975,0.831,0.848,0.951,0.901,0.972,0.922,0.957,0.824,0.483,0.315,0.636,0.724,0.804,0.82,0.812,0.299,0.32,0.297,0.244,0.181
NCI-H1993,0.871,0.888,0.903,1.02,1.09,1.01,0.702,0.663,0.59,0.603,0.568,0.572,0.51,0.529,0.556,0.554,0.496,0.49,0.345,0.421
NCI-H2009,0.987,0.986,0.998,0.921,0.952,1.05,0.983,1.04,0.598,0.366,0.615,0.591,0.582,0.539,0.59,1.09,1.07,1,0.964,0.498
NCI-H2023,0.901,0.936,0.931,0.923,0.957,0.827,0.875,0.579,0.166,0.12,0.437,0.322,0.421,0.393,0.398,0.172,0.182,0.179,0.101,0.0876
NCI-H2085,0.872,0.953,0.894,0.971,1.05,1.02,0.986,0.96,0.553,0.387,0.664,0.536,0.733,0.772,0.858,0.905,0.884,0.811,0.345,0.273
NCI-H2087,0.883,0.987,0.978,0.996,0.982,1.38,1.22,1.07,0.657,0.437,0.403,0.368,0.595,0.518,0.728,0.627,0.684,0.625,0.521,0.506
